Here are results for 5 substances from PMC3808539, “CtpB Assembles a Gated Protease Tunnel Regulating Cell-Cell Signaling during Spore Formation in Bacillus subtilis” (Cell, 2013).

Ends that are not written are not given here.

One assay has as its system PDZ domain of CtpB. In words: Peptide spot assay. It counts as binding, Bacillus subtilis. The conditions noted are these: inverted peptide array on cellulose membrane; CtpB variants 10 μg/ml, overnight 4°C; anti-polyHis chemiluminescence. As for the experimental part:
Peptide spot libraries were generated by synthesizing the 11 C-terminal residues of 1,849 B. subtilis proteins predicted to reside in the intermembrane space onto a cellulose membrane. Membranes were blocked for 4 hr with blocking buffer (blocking reagent, Sigma-Genosys) and subsequently incubated with CtpB. Bound protein was identified using specific antibodies. Further libraries were generated, where identified peptide sequences were systematically permutated.
Peptide spot libraries were generated by synthesizing the 11 C-terminal residues of 1849 B. subtilis proteins known to reside in the intermembrane space. Peptide libraries were generated by a MultiPep SPOTrobot (INTAVIS Bioanalytical Instruments AG) using an optimized method for generating inverted peptides ([Boisguerin et al., 2007], [Volkmer, 2009]). […] Bound CtpB was detected using a mouse anti-polyHis antibody (Sigma, 1:3,000 in blocking buffer, 2 hr at RT) followed by horseradish-peroxidase conjugated anti-mouse antibody (Calbiochem, 1:2,000 in blocking buffer, 1 hr at RT). […] The signal intensities with background-subtraction were recorded as […] with a LumiImager (Boehringer) and analyzed using the LumiAnalyst software. Secondary libraries for subtitutional analyses were generated by systematically permutating identified peptides and analyzed by the described peptide spot methodology.

In the next assay the test system is CtpB. In words: Degradation of in vitro translated 4FAproc constructs with distinct C termini by CtpB. In kind it is biochemical, Bacillus subtilis. The conditions noted are these: autoradiography. As for the experimental part:
4FAproc with alternative C-termini was produced using the promega TNT Quick Coupled Transcription/Translation System, following manufactures instructions. Briefly, 40 μl of TNT Master Mix were added to 0.5 μg of template plasmid DNA and 20 μCi of ^35S-methionine (Perkinelmer). The coupled transcription-translation reaction was carried out upon incubation at 30°C for 2 hr. Relative product amounts were normalized based on ^35S-autoradiography following SDS-PAGE analysis.
To measure the proteolytic activities of the SpoIV signaling proteases, recombinant, purified proteases (CtpB, 4B or both, 3 μM) were mixed with respective 4FA model substrates (15 μM) and incubated for various times at 25°C. Reactions were stopped by adding SDS loading buffer. Subsequently, samples were incubated for 5 min at 95°C and analyzed by SDS-PAGE and Coomassie staining. […] Reaction aliquots were stopped and analyzed as described. To compare the cleavage efficiency of various CtpB mutants, the amount of 4FAproc substrate was quantified by analyzing the stained gels using the software ImageJ ([Schneider et al., 2012]). […] Reactions were analyzed by SDS–PAGE and immunoblotting using anti-GFP antibodies ([Rudner and Losick, 2002]). […] The cleavage assays were carried out as described and analyzed by SDS-PAGE and ^35S-autoradiography using Amercham Hyperfilm™ MP films.

The next assay deals with CtpB S309A mutant. The assay is described as follows: Cocrystallization of CtpB S309A with peptide. It counts as binding, Bacillus subtilis. The conditions noted are these: S309A/VPA complex, 1.9 Å, 20 mg/ml CtpB incubated with 1 mM peptide for 1 hr at 19°C.
Assay [1] addresses T1, isolated PDZ domain of CtpB (Bacillus subtilis, UniProt O35002).
T1 construct: His tag; made in house; host or cells: E. coli BL21(DE3)pLysS
In words: Isothermal titration calorimetry, isolated PDZ domain. In kind it is binding. From the text:
(§1) Figure S4 Peptide-Binding Properties of the PDZ Domain, Related to Figure 4 (A) The C termini of B. subtilis proteins predicted to reside in the intermembrane space were synthesized on a cellulose membrane according to the method of inverted peptides. Spotted membranes were probed with either the PDZ domain of CtpB (left) or the ΔPDZ mutant (right). (B) Identified strong binding peptides were further analyzed by systematically substituting residues critical for binding to the PDZ domain of CtpB. (C) ITC analysis testing the interaction of the indicated peptides with the isolated PDZ domain and full-length CtpB (S309A). Raw data (top) and binding isotherm derived from the integrated heat (bottom) are shown. The determined KD dissociation constants are indicated below the binding curves. […] The final model is overlaid with the omit 2Fo-Fc electron density (1.9 Å resolution, contoured at 1.2 σ) calculated without peptide ligand and Arg168.
(§2) Thermodynamic values characterizing the interaction between CtpB and peptide ligands were determined by ITC (MCS-ITC; Microcal). […]
(§3) The interaction between CtpB (wild-type; mutant forms or isolated PDZ domain) and peptide ligands was characterized by ITC measurements (MCS-ITC; Microcal). […] Resulting data were analyzed with the MicroCal ORIGIN software, following the instructions of the manufacturer. […]
On the technique in general: Isothermal titration calorimetry measures the heat released or taken up as one component is titrated into another.

Another assay has as its target T2, CtpB R168A (Bacillus subtilis, UniProt O35002, R168A).
T2 construct: with the full-length CtpB variants R168A, R168F and V118Y; His tag; made in house; host or cells: E. coli BL21(DE3)pLysS
The assay is described as follows: Isothermal titration calorimetry, full-length CtpB R168A. It counts as binding. The procedure:
(§4) Figure S5 Peptide Binding to the PDZ Domain Stabilizes the Active Protease State of CtpB, Related to Figure 5 (A) The interfaces of the PDZ domain with the other domains of CtpB were analyzed to evaluate the prevailing conformation of CtpB in solution. The ribbon representations of CtpBi (left) and CtpBa1 (right) emphasize the PDZ domain that is shown in yellow. Interactions stabilizing the respective domain interfaces (summarized in top panel) are highlighted in orange and the residues forming hydrogen-bonds are listed. […] (B) ITC analysis characterizing the interaction of a peptide having an Ala-Tyr-Ala C terminus with the full-length CtpB variants R168A, R168F and V118Y. Raw data (top) and binding isotherm derived from the integrated heat (bottom) are shown. The determined KD dissociation constants are indicated below the binding curves. (C) Left: a ribbon model of the CtpB V118Y mutant structure, which was crystallized in the same resting conformation as CtpBi. […]
as §2, §3

Another assay addresses T3, CtpB R168F (Bacillus subtilis, UniProt O35002, R168F).
T3 construct: with the full-length CtpB variants R168A, R168F and V118Y; His tag; made in house; host or cells: E. coli BL21(DE3)pLysS
In words: Isothermal titration calorimetry, full-length CtpB R168F. It counts as binding. As for the experimental part: as §4, §2, §3

The target of the next assay is T4, full-length CtpB (S309A) (Bacillus subtilis, UniProt O35002, S309A).
T4 construct: the isolated PDZ domain and full-length CtpB (S309A); His tag; made in house; host or cells: E. coli BL21(DE3)pLysS
T4 sequence (O35002 24-480 S309A): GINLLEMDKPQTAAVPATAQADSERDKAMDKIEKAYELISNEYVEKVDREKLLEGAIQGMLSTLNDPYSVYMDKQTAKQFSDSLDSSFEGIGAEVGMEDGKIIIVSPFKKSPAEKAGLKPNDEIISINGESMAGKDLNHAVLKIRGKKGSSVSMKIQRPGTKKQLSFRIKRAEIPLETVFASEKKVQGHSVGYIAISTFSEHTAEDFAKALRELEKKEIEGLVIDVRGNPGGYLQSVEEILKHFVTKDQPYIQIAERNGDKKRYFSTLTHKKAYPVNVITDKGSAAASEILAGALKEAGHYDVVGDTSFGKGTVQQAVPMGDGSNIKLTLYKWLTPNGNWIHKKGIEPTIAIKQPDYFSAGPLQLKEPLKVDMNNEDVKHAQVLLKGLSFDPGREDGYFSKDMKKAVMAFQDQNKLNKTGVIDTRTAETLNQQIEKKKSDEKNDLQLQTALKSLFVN
In words: Isothermal titration calorimetry, full-length CtpB (S309A). In kind it is binding.
Excerpt: as §1, §2, §3

T1 sequence (O35002 92-182): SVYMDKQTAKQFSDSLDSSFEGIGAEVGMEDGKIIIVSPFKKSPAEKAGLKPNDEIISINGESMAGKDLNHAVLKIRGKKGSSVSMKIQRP
T2 sequence (O35002 24-480 R168A): as the sequence (O35002 24-480 S309A) above, with R145A, A286S counted along it
T3 sequence (O35002 24-480 R168F): as the sequence (O35002 24-480 S309A) above, with R145F, A286S counted along it
Protocol for CtpB S309A mutant: CtpB crystals were grown at 19°C by the sitting-drop vapor-diffusion method using a 2:1 mixture of protein (20 mg/ml) and reservoir solution. […] Finally, diffraction data of CtpBi/VPA was collected at Deutsches Elektronen-Synchrotron (DESY, beamline P14) using a Pilatus detector (Dectris). Integration and scaling of diffraction data were performed with the programs DENZO, and [sequence]
For all other structures, phases were determined by molecular replacement using the program PHASER ([McCoy et al., 2007]) and the structure of CtpBa1 as search model. In all cases, energy restrained refinement was performed with the programs CNS ([Brünger et al., 1998]) and PHENIX ([Adams et al., 2010]), utilizing bulk solvent and anisotropic B-factor corrections depending on the development of the Rfree index. Refinement was performed in multiple cycles, interrupted for manual model re-building with the program O ([Jones et al., 1991]). Final models were verified with the program MolProbity ([Chen et al., 2010]) and crystal contacts analyzed using the PISA algorithm implemented on the Protein Data Bank Europe website ([Krissinel and Henrick, 2007]).

For H-NLVLAGLHSYA-OH, the “binding to PDZ domain in peptide spot analysis” value with PDZ domain of CtpB was “identified PDZ binder”.
Regarding Ala-Pro-Ala, the “degradation by CtpB (in words)” value with CtpB (0.3 μM wild-type CtpB, in vitro translated 35S-methionine-labeled 4FAproc constructs) was “rapidly degraded”. Further, the “efficiency in stimulating protease function” value with CtpB (4FAproc constructs applied at decreasing concentrations, 0.3 μM CtpB) was “less efficient in stimulating protease function than the Ala-Tyr-Val motif, especially at lower concentrations”.
For the substance “H-EMDKPQTAAVPA-OH [oligopeptide having a Val-Pro-Ala C terminus, cocrystallized with S309A]”, the “conformation of S309A cocrystallized with peptide” value in the assay on CtpB S309A mutant was “active conformation”; in the assay on CtpB S309A mutant (listed as oligopeptide having a Val-Pro-Ala C terminus), “peptide binding itself is sufficient to transform the resting protease into the active conformation”.
For orientation: Kd means the equilibrium constant for the complex coming apart. Read a low Kd as higher affinity. As to FMLLRRKAYV, binding in assay [1] was characterised by a dissociation constant (Kd) of 0.9 µM. This lies in the sub-micromolar range.
FMLLRRKAYA: the Kd at CtpB R168A amounted to 21 µM; at CtpB R168F, 40 µM; on full-length CtpB (S309A), 6.5 µM; in assay [1], 2.3 µM.
